Source: paper PMC12203311, “Design, synthesis, in silico and in vitro evaluation of pyrrole–indole hybrids as dual tubulin and aromatase inhibitors with potent anticancer activities” (RSC Advances, 2025)

Columns and labels:
Test in all cases: NCI60 five-dose screen
NCI-H23 = format: cell-based; conditions: Homo sapiens, NCI-H23, NSC lung cancer
SNB-75 = format: cell-based; conditions: Homo sapiens, SNB-75, CNS cancer
HCT-15 = format: cell-based; conditions: Homo sapiens, HCT-15, colon cancer
HOP-62 = format: cell-based; conditions: Homo sapiens, HOP-62, NSC lung cancer
NCI-H460 = format: cell-based; conditions: Homo sapiens, NCI-H460, NSC lung cancer
K-562 = format: cell-based; conditions: Homo sapiens, K562, K-562, leukemia
LOX IMVI = format: cell-based; conditions: Homo sapiens, melanoma
PC-3 = format: cell-based; conditions: Homo sapiens, PC-3, prostate cancer
NCI-H522 = format: cell-based; conditions: Homo sapiens, NCI-H522, NSC lung cancer
MDA-MB-231/ATCC = format: cell-based; conditions: Homo sapiens, breast cancer
IGROV1 = format: cell-based; conditions: Homo sapiens, IGROV-1; IGROV1, ovarian cancer
A549/ATCC = format: cell-based; conditions: Homo sapiens, NSC lung cancer
UACC-257 = format: cell-based; conditions: Homo sapiens, UACC-257, melanoma
SK-OV-3 = format: cell-based; conditions: Homo sapiens, SK-OV-3, ovarian cancer
MCF7 = format: cell-based; conditions: Homo sapiens, MCF7, breast cancer
HL-60 (TB) = format: cell-based; conditions: Homo sapiens, leukemia
BT-549 = format: cell-based; conditions: Homo sapiens, BT-549, breast cancer
TK-10 = format: cell-based; conditions: Homo sapiens, TK-10, renal cancer
COLO 205 = format: cell-based, human; conditions: Homo sapiens
SK-MEL-5 = format: cell-based, human; conditions: Homo sapiens
DU-145 = format: cell-based; conditions: Homo sapiens, DU-145, prostate cancer
SK-MEL-2 = format: cell-based; conditions: Homo sapiens, SK-MEL-2, melanoma
ACHN = format: cell-based; conditions: Homo sapiens, renal cancer
SNB-19 = format: cell-based; conditions: Homo sapiens, SNB-19, CNS cancer
EKVX = format: cell-based; conditions: Homo sapiens, NSC lung cancer
UACC-62 = format: cell-based; conditions: Homo sapiens, UACC-62, melanoma
U251 = format: cell-based; conditions: Homo sapiens, U-251, U251, CNS cancer
OVCAR-8 = format: cell-based; conditions: Homo sapiens, OVCAR-8, ovarian cancer
CAKI-1 = format: cell-based; conditions: Homo sapiens, CAKI-1, renal cancer
OVCAR-3 = format: cell-based; conditions: Homo sapiens, OVCAR-3, ovarian cancer
SK-MEL-28 = format: cell-based; conditions: Homo sapiens, SK-MEL-28, melanoma
RPMI-8226 = format: cell-based; conditions: Homo sapiens, RPMI-8226, leukemia
NCI/ADR-RES = format: cell-based, human; conditions: Homo sapiens, ovarian cancer
SF-295 = format: cell-based; conditions: Homo sapiens, SF-295, CNS cancer
SN12C = format: cell-based; conditions: Homo sapiens, renal cancer
OVCAR-4 = format: cell-based; conditions: Homo sapiens, OVCAR-4, ovarian cancer
[1] = read-out: LC50 (the source's name)

With `Cc1[nH]c(/C=N/NC(=O)c2[nH]c3ccc(Br)cc3c2-c2ccccc2)c(C)c1[N+](=O)[O-]` [Derivative 3r, (E)-5-Bromo-N′-((3,5-dimethyl-4-nitro-1H-pyrrol-2-yl)methylene)-3-phenyl-1H-indole-2-carbohydrazide] as the molecule, how does the GI50 (NCI-H23) read?
Its GI50 is 2.46 µM.

And the CC50 (NCI-H23; [1])?
Its CC50 is 26.3 µM.

And the GI50 (SNB-75)?
Its GI50 is 2.19 µM.

What about the CC50 (SNB-75; [1]) of the same molecule?
Its CC50 is 21.5 µM.

What about the GI50 (HCT-15) of the same molecule?
Its GI50 is 2.41 µM.

What about the CC50 (HCT-15; [1]) of the same molecule?
The CC50 was 26.4 µM.

And the GI50 (HOP-62)?
The GI50 was 2.09 µM.

What about the CC50 (HOP-62; [1]) of the same molecule?
The CC50 was 11.7 µM.

What about the GI50 (NCI-H460) of the same molecule?
Its GI50 is 1.87 µM.

And the CC50 (NCI-H460; [1])?
The CC50 was 8.05 µM.

What about the GI50 (K-562) of the same molecule?
Its GI50 is 2.69 µM.

And the CC50 (K-562; [1])?
Its CC50 is greater than 100 µM.

And the GI50 (LOX IMVI)?
The GI50 was 1.63 µM.

What about the CC50 (LOX IMVI; [1]) of the same molecule?
Its CC50 is 5.73 µM.

What about the GI50 (PC-3) of the same molecule?
Its GI50 is 2.85 µM.

And the CC50 (PC-3; [1])?
Its CC50 is 45.5 µM.

And the GI50 (NCI-H522)?
Its GI50 is 2.43 µM.

And the CC50 (NCI-H522; [1])?
Its CC50 is 29.6 µM.

What about the GI50 (MDA-MB-231/ATCC) of the same molecule?
Its GI50 is 3.56 µM.

And the CC50 (MDA-MB-231/ATCC; [1])?
Its CC50 is 40.5 µM.

And the GI50 (IGROV1)?
Its GI50 is 3.83 µM.

And the GI50 (A549/ATCC)?
Its GI50 is 3.19 µM.

And the CC50 (A549/ATCC; [1])?
Its CC50 is 35.6 µM.

And the GI50 (UACC-257)?
Its GI50 is 3.13 µM.

What about the CC50 (UACC-257; [1]) of the same molecule?
Its CC50 is 48.1 µM.

And the GI50 (SK-OV-3)?
The GI50 was 3.23 µM.

And the CC50 (SK-OV-3; [1])?
Its CC50 is 39.2 µM.

And the GI50 (MCF7)?
The GI50 was 2.57 µM.

What about the CC50 (MCF7; [1]) of the same molecule?
The CC50 was 29.9 µM.

And the GI50 (HL-60 (TB))?
Its GI50 is 2.31 µM.

And the CC50 (HL-60 (TB); [1])?
Its CC50 is greater than 100 µM.

And the GI50 (BT-549)?
The GI50 was 2.74 µM.

What about the CC50 (BT-549; [1]) of the same molecule?
The CC50 was 30.6 µM.

And the GI50 (TK-10)?
The GI50 was 5.1 µM.

What about the CC50 (TK-10; [1]) of the same molecule?
The CC50 was 41.2 µM.

And the CC50 (COLO 205; COLO 205, COLO 205, colon cancer, read-out: LC50 (the source's name))?
The CC50 was 7.51 µM.

What about the GI50 (COLO 205; COLO 205, colon cancer) of the same molecule?
The GI50 was 1.9 µM.

And the CC50 (SK-MEL-5; SK-MEL-5, SK-MEL-5, melanoma, read-out: LC50 (the source's name))?
The CC50 was 5.87 µM.

And the GI50 (SK-MEL-5; SK-MEL-5, melanoma)?
The GI50 was 1.5 µM.

What about the GI50 (DU-145) of the same molecule?
The GI50 was 3.48 µM.

And the CC50 (DU-145; [1])?
Its CC50 is 34.9 µM.

And the GI50 (SK-MEL-2)?
Its GI50 is 2.11 µM.

And the CC50 (SK-MEL-2; [1])?
The CC50 was 22.6 µM.

What about the GI50 (ACHN) of the same molecule?
Its GI50 is 3.3 µM.

And the CC50 (ACHN; [1])?
The CC50 was 33.4 µM.

And the GI50 (SNB-19)?
Its GI50 is 3.45 µM.

And the CC50 (SNB-19; [1])?
The CC50 was 43.1 µM.

And the GI50 (EKVX)?
The GI50 was 3.34 µM.

What about the CC50 (EKVX; [1]) of the same molecule?
Its CC50 is 34.9 µM.

And the GI50 (UACC-62)?
The GI50 was 2.9 µM.

And the CC50 (UACC-62; [1])?
The CC50 was 37.5 µM.

What about the GI50 (U251) of the same molecule?
Its GI50 is 1.85 µM.

What about the CC50 (U251; [1]) of the same molecule?
Its CC50 is 13.4 µM.

What about the GI50 (OVCAR-8) of the same molecule?
Its GI50 is 3.08 µM.

And the CC50 (OVCAR-8; [1])?
The CC50 was 36.5 µM.

What about the GI50 (CAKI-1) of the same molecule?
The GI50 was 2.29 µM.

And the CC50 (CAKI-1; [1])?
The CC50 was 33.1 µM.

What about the GI50 (OVCAR-3) of the same molecule?
The GI50 was 1.77 µM.

What about the CC50 (OVCAR-3; [1]) of the same molecule?
Its CC50 is 10.4 µM.

What about the GI50 (SK-MEL-28) of the same molecule?
The GI50 was 3.56 µM.

What about the CC50 (SK-MEL-28; [1]) of the same molecule?
Its CC50 is 38.7 µM.

And the GI50 (RPMI-8226)?
Its GI50 is 2.7 µM.

What about the CC50 (RPMI-8226; [1]) of the same molecule?
Its CC50 is greater than 100 µM.

What about the GI50 (NCI/ADR-RES) of the same molecule?
Its GI50 is 1.89 µM.

And the CC50 (NCI/ADR-RES; [1])?
Its CC50 is 9.15 µM.

What about the GI50 (SF-295) of the same molecule?
The GI50 was 2.32 µM.

And the CC50 (SF-295; [1])?
The CC50 was 21.2 µM.

And the GI50 (SN12C)?
Its GI50 is 1.74 µM.

And the CC50 (SN12C; [1])?
Its CC50 is 6.73 µM.

What about the GI50 (OVCAR-4) of the same molecule?
Its GI50 is 1.97 µM.

What about the CC50 (OVCAR-4; [1]) of the same molecule?
Its CC50 is 18.8 µM.
